Experimental data from US5441732A, “Reversible gelation emulsion compositions and methods of use” (Allergan, Inc., priority 1992, dated 1995).
Read-outs that look alike come from different tables or passages of the source.

Key:
[1] = Drug solubility in oil at room temperature; format: physicochemical; conditions: for Drug solubility in Miglyol: Miglyol 812
[2] = cited from earlier work

| SMILES | Drug solubility in Diethyl Phthalate [1] | solubility in diethyl phthalate [1] | Drug solubility in Miglyol [1] | water solubility ([2]; pH 4.0) | water solubility ([2]; pH 7.4) |
| --- | --- | --- | --- | --- | --- |
| CC(=O)[C@@]1(O)CC[C@H]2[C@@H]3C[C@H](C)C4=CC(=O)C=C[C@]4(C)[C@@]3(F)[C@@H](O)C[C@@]21C [Fluorometholone] | 0.075% | relatively low | < 0.001% |  |  |
| CC(C(=O)O)c1ccc(-c2ccccc2)c(F)c1 (stereo not shown) [Flurbiprofen (free acid)] | 12-20% |  | 2-4% | very small | higher |
